Patent US20170209373A1, “MULTIFUNCTIONAL POLYMERIC NANOPARTICLE FOR DIAGNOSIS OR TREATMENT OF CEREBRAL DISEASES AND A PREPARATION METHOD THEREOF” (KOREA INSTITUTE OF SCIENCE AND TECHNOLOGY, priority 2016, published 2017)

System: luciferase-expressing U-87 MG cells
Assay: Cancer treating effect in brain tumor model (bioluminescence signals)
Format: in vivo, mouse
Procedure: The NP-cur aqueous dispersion prepared according to Example 1-1 was intravenously injected daily at a dose of 200 μL from day 3 of the transplantation of the cancer cells in the brain tumor model prepared according to Example 3-1. […] For the control groups to which the drug was not administered, a group (control of FIG. 11) to which the F-127 aqueous solution was intravenously injected daily for 3 weeks at a dose of 200 μL, and a group (free curcumin of FIG. 11) to which curcumin which was not loaded in the polymeric nanoparticles but was dissolved in an organic solvent, dimethyl sulfoxide (DMSO, Daejung Chemicals & Metals Co., LTD., Korea), was intraperitoneally injected at a dosage of 360 mg/kg daily for 3 weeks was selected to observe the bioluminescence signals in the same manner as in the NP-cur administration experimental group. Finally, the bioluminescence signals observed in the two control groups and experimental group and the results of comparative analysis thereof are shown in FIG. 11.

What does the source list for `COc1cc(/C=C/C(=O)CC(=O)/C=C/c2ccc(O)c(OC)c2)ccc1O` [curcumin]?
effect on tumor growth (NP-cur 0.2 mg/kg/d i.v., curcumin solution 360 mg/kg/d i.p.): only slightly slowed; bioluminescence intensity of brain tumor over time (days 7, 14, 21) (NP-cur 200 μL i.v. daily (0.2 mg/kg/d curcumin), free curcumin in DMSO i.p. 360 mg/kg daily for 3 weeks): still showed a large signal increase
